Measurements taken from patent publication US4794187A, “^35 S-labelled 1.4-dihydropyridines” (Bayer Aktiengesellschaft, priority 1986, dated 1988).

How the values were obtained:
brain receptor = test: binding to the brain 1,4-dihydropyridine receptor (radioligand dissociation); details: 37° C.
skeletal muscle receptor = molecular target: T1, skeletal muscle receptor (Homo sapiens, UniProt Q13698); test: binding to the skeletal muscle 1,4-dihydropyridine receptor (radioligand dissociation); details: 37° C., read-out: dissociation rate constant (converted)
T1 construct: dissociation rate constant (at 37° C.) of 0.070±0.01 min^-1 on skeletal muscle; from tissue
T1 sequence (Q13698 whole entry): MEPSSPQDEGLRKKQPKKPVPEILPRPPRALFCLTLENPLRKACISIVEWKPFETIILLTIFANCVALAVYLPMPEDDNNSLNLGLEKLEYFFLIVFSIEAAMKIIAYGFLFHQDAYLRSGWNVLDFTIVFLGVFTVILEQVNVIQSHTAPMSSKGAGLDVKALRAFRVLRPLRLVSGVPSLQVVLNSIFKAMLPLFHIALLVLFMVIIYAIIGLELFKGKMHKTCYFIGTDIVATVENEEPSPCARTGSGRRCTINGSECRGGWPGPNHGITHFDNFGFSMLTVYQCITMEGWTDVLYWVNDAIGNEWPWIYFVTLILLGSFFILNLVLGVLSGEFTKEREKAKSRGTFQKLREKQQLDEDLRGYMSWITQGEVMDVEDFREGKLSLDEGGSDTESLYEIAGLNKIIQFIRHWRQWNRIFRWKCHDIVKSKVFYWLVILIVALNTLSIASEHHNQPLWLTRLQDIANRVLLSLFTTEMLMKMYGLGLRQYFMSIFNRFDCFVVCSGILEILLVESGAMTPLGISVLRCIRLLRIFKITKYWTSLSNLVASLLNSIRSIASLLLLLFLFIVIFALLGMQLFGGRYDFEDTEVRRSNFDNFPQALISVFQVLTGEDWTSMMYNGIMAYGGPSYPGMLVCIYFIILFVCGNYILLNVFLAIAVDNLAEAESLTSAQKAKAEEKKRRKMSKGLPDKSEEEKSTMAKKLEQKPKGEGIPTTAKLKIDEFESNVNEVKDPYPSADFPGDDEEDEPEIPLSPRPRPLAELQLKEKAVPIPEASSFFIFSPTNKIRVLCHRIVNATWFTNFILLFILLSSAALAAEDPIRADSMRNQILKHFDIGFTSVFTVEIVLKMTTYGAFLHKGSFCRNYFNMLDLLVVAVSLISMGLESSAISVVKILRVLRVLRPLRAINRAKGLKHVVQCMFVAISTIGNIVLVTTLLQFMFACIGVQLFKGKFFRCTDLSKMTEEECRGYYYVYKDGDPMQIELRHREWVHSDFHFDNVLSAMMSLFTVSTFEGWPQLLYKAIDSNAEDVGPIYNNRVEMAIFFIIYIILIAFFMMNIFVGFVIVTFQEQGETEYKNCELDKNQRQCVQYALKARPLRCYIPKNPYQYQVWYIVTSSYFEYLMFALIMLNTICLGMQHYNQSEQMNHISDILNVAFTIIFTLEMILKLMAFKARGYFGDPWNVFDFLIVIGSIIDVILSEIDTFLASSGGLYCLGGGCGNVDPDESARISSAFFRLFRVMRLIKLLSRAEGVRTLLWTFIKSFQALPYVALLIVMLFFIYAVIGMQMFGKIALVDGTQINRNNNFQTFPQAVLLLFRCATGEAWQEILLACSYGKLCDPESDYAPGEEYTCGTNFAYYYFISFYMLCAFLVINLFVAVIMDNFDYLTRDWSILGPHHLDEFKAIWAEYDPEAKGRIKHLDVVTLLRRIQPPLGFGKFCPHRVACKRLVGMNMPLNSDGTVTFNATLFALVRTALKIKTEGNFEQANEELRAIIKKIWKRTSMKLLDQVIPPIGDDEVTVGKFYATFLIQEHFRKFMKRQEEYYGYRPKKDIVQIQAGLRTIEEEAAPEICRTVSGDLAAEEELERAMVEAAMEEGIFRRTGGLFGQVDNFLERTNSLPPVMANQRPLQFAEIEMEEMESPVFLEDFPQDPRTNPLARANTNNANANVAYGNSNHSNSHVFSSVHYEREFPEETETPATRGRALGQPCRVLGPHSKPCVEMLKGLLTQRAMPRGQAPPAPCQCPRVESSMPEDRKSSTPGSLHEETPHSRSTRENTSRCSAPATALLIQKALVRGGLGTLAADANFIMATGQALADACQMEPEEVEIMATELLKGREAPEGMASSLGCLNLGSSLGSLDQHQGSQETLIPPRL
T1 sequence (P54289 25-957 partner limits assumed): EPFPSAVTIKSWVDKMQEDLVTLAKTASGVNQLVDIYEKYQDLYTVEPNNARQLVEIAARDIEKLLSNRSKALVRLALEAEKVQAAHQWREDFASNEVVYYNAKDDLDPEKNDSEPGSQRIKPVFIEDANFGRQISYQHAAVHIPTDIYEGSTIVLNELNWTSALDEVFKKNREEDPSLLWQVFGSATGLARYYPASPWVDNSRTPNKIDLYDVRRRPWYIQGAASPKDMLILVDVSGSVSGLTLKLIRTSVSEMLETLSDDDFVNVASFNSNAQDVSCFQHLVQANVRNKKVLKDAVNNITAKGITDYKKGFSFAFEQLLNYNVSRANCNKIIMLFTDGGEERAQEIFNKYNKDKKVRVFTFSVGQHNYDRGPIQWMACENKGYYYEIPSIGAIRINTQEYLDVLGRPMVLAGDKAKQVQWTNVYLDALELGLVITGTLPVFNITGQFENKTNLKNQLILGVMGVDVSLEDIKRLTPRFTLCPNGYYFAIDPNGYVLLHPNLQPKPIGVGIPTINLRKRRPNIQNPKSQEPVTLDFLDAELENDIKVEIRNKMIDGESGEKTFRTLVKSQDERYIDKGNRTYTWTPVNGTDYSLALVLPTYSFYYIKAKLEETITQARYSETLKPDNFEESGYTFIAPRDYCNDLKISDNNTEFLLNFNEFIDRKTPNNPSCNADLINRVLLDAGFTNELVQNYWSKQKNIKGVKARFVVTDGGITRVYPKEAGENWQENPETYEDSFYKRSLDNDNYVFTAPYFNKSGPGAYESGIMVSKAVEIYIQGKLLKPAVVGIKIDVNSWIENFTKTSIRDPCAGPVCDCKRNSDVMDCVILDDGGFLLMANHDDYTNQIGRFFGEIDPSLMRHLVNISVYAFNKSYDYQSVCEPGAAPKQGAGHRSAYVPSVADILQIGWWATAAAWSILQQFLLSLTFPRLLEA
T1 sequence (P54289 958-1103 partner limits assumed): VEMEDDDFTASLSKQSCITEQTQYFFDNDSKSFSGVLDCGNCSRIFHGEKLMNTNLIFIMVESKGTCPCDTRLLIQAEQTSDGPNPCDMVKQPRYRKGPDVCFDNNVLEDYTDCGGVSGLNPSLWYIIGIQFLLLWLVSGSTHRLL
T1 sequence (Q02641 whole entry partner): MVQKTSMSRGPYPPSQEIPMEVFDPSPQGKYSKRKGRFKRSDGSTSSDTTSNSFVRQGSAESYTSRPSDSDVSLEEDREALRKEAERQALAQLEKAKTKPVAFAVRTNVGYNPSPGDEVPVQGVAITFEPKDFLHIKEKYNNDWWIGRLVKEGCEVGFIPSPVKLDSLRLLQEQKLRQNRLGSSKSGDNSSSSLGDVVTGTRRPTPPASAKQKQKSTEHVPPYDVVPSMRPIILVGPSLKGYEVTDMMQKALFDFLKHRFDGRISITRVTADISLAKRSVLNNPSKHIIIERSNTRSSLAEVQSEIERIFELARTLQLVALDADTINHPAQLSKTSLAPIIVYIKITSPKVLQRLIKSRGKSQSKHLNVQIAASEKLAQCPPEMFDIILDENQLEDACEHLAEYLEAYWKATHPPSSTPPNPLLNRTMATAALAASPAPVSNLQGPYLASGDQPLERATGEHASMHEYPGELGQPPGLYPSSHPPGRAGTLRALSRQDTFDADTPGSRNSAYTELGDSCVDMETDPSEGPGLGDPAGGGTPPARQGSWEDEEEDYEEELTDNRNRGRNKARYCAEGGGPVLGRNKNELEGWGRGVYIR
T1 sequence (Q06432 whole entry partner): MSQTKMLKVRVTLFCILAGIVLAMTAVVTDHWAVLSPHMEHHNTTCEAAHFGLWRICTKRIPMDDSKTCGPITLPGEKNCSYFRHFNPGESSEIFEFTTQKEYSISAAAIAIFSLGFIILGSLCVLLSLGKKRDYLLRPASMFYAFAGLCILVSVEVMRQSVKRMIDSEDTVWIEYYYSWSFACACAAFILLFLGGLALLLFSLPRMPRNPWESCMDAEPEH

dissociation rate constant (brain receptor): 0.02 min⁻¹
koff (skeletal muscle receptor): 0.00117 s⁻¹
SMILES: CCOC(=O)C1=C(C)NC(C)=C(C(=O)OCCNC(=O)[C@H](CC[35S]C)NC(=O)OC(C)(C)C)C1c1ccccc1C(F)(F)F (some centres unmarked) [Example 1]
